Reference: patent US9340577B2, “HLA binding motifs and peptides and their uses” (priority 1992, dated 2016)
No end group written: not given here.

Experiments:
Test in all cases: biochemical
DRB1*1201 = DRB1*1201 (Homo sapiens, UniProt P01903+P01911, A100R/A169T/D57E/D86V/F55L/H45Y/K41T/L162R/M171V/P40S/Q125H/Q178H/Q39Y/Q99D/R42G/S66L/T262R/V114A/V67L/W38E/Y59H/Y61H/Y89S); type: binding
DRB1*1302 = DRB1*1302 (Homo sapiens, UniProt P01903+P01911, A100E/A169T/K41T/L162R/M171V/P40S/Q125H/Q178H/Q39Y/Q99D/R42S/S66N/T262R/V115G/W38E/Y61H); type: binding
DRB1*0301 = DRB1*0301 (Homo sapiens, UniProt P01903+P01911, A100K/A102G/A103R/A169T/F55Y/I96L/K41T/L162R/M171V/P40S/Q125H/Q178H/Q39Y/R42S/S66N/T106N/T262R/W38E/Y61H); type: binding
DRB3*0101 = DRB3*0101 (Homo sapiens, UniProt P01903+P79483); type: binding
DR7 (DRB1*0701) = DR7 (DRB1*0701) (Homo sapiens, UniProt P01903+P01911, A100R/A102G/A103Q/D57E/D86V/E43K/F76Y/K127E/L162R/M171V/P40G/Q125H/Q99D/R33Q/R42Y/R54Q/S133A/S66F/T210M/V115G/Y107V/Y59L/Y89S); type: binding
DRB4*0101 = DRB4*0101 (Homo sapiens, UniProt P01903+P13762, G164S); type: binding
DR4w4 (DRB1*0401) = DR4w4 (DRB1*0401) (Homo sapiens, UniProt P01903+P01911, A100K/A169T/F76Y/I96L/K127E/L162R/M171V/N62H/P40V/Q125Y/R42H/S133A/S149N/S66Y/V115G/V209L/W38E); type: binding
DRB1*0405 = DRB1*0405 (Homo sapiens, UniProt P01903+P01911, A100R/A169T/D86S/F76Y/I96L/K127E/L162R/M171V/N62H/P40V/Q125Y/R42H/S133A/S149N/S66Y/V115G/V209L/W38E); type: binding
DR1 (DRB1*0101) = DR1 (DRB1*0101) (Homo sapiens, UniProt P01903+P01911, A100R/D57E/F55L/F60I/F76Y/I96L/L162R/M171V/P40L/Q125E/R42F/V115G/Y59C); type: binding
DRB1*1101 = DRB1*1101 (Homo sapiens, UniProt P01903+P01911, A100R/A169T/A87E/I96F/K41T/L162R/M171V/P40S/Q125H/Q178H/Q39Y/Q99D/R42S/S66Y/T262R/V115G/W38E); details: Binding affinity DRB1 *1101
DRB5*0101 = DRB5*0101 (Homo sapiens, UniProt P01903+Q30154); details: Binding affinity DRB5 *0101
DRB1*0802 = DRB1*0802 (Homo sapiens, UniProt P01903+P01911, A100R/A103L/A169T/F76Y/H45Y/I96F/K41T/L162R/M171V/P40S/Q125H/Q178H/Q39Y/Q99D/R218S/R42G/S66Y/V115G/W38E); type: binding
DRB1*1501 = DRB1*1501 (Homo sapiens, UniProt P01903+P01911); type: binding
DRB1*0901 = DRB1*0901 (Homo sapiens, UniProt P01903+P01911, A100R/A103E/D57H/D86V/F55Y/F60I/F76Y/I96F/K127E/L162R/M171V/P40D/Q125H/Q99R/R33Q/R42F/S133A/S66N/T210M/V115G/W38K/Y107V/Y59G/Y89S); type: binding

DRB1*0301, sequence (P01903 26-254 limits assumed, other chains not shown): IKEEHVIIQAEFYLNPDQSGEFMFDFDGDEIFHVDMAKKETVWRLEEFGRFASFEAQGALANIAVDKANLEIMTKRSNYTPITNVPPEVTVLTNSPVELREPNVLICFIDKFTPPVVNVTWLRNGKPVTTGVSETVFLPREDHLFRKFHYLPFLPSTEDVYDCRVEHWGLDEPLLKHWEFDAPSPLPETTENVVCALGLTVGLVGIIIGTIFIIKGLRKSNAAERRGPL
DRB1*1101, sequence (P01903 26-254 limits assumed, other chains not shown): as above
DRB1*1302, sequence (P01903 26-254 limits assumed, other chains not shown): as above

Row | Compound | IC50 (DRB1*1201) [µM] | IC50 (DRB1*1302) [µM] | IC50 (DRB1*0301) [µM] | IC50 (DRB3*0101) [µM] | IC50 (DR7 (DRB1*0701)) [µM] | IC50 (DRB4*0101) [µM] | IC50 (DR4w4 (DRB1*0401)) [µM] | IC50 (DRB1*0405) [µM] | IC50 (DR1 (DRB1*0101)) [µM] | IC50 (DRB1*1101) [µM] | IC50 (DRB5*0101) [µM] | IC50 (DRB1*0802) [µM] | IC50 (DRB1*1501) [µM] | IC50 (DRB1*0901) [µM]
1 | CC[C@H](C)[C@H](NC(=O)CNC(=O)[C@H](Cc1ccc(O)cc1)NC(=O)[C@H](CC(C)C)NC(=O)[C@H](CO)NC(=O)[C@H](CC(C)C)NC(=O)[C@H](CC(C)C)NC(=O)[C@H](CO)NC(=O)[C@@H](N)CC(C)C)C(=O)N[C@@H](Cc1c[nH]cn1)C(=O)N[C@@H](CCCCN)C(=O)N[C@@H](CCC(N)=O)C(=O)N[C@@H](CCCCN)C(=O)N[C@@H](CCC(=O)O)C(=O)N[C@@H](CCCCN)C(=O)O [Peptide 68.0045] | 0.647 | > 20 | > 20 | > 20 | > 20 | – | – | – | – | – | – | – | – | –
2 | CSCC[C@H](NC(=O)[C@H](CC(=O)O)NC(=O)[C@H](Cc1ccc(O)cc1)NC(=O)[C@H](CC(C)C)NC(=O)[C@@H]1CCCN1C(=O)[C@H](Cc1c[nH]cn1)NC(=O)[C@@H]1CCCN1C(=O)[C@H](Cc1ccccc1)NC(=O)[C@H](CO)NC(=O)[C@H](Cc1c[nH]cn1)NC(=O)[C@H](CO)NC(=O)[C@@H](NC(=O)[C@H](CCC(N)=O)NC(=O)[C@H](Cc1ccccc1)NC(=O)[C@@H](N)C(C)C)C(C)C)C(=O)O [Peptide 68.0070] | 2.48 | – | > 20 | > 20 | – | > 20 | – | – | – | – | – | – | – | –
3 | CC(C)C[C@H](NC(=O)[C@H](CC(=O)O)NC(=O)[C@@H](NC(=O)[C@@H](NC(=O)[C@H](CCC(=O)O)NC(=O)[C@@H]1CCCN1C(=O)[C@H](CCC(N)=O)NC(=O)[C@H](CC(C)C)NC(=O)[C@H](CC(=O)O)NC(=O)[C@@H](N)CC(C)C)[C@@H](C)O)[C@@H](C)O)C(=O)N[C@@H](Cc1ccc(O)cc1)C(=O)N[C@@H](CS)C(=O)N[C@@H](Cc1ccc(O)cc1)C(=O)N[C@@H](CCC(=O)O)C(=O)N[C@@H](CCC(N)=O)C(=O)O [Peptide 1543.04] | > 20 | > 20 | 0.59 | > 20 | > 20 | – | 1.9 | > 20 | > 20 | > 20 | > 20 | > 20 | > 20 | > 20
4 | CIHSTATDLRTLQQM [Peptide 1543.45] | 4.51 | 2.99 | 0.213 | > 20 | 0.459 | 0.159 | 0.014 | 0.37 | 0.448 | – | 2.45 | 0.493 | 15 | 19
5 | EYVLDLYPEPTDLYC [Peptide 1543.12] | 2.21 | > 20 | 0.76 | 0.734 | > 20 | 0.159 | – | 5.88 | 9.08 | > 20 | > 20 | > 20 | 13 | > 20
6 | KERHVNANKRFHNIM [Peptide 1543.59] | 0.26 | 0.0052 | 1.35 | > 20 | – | 8.48 | 0.055 | 0.026 | 0.413 | 0.083 | 0.502 | 1.23 | 12.9 | 2.85
7 | LCVNSTASDLRTIQQ [Peptide 1543.15] | 1.59 | – | 6.23 | > 20 | 0.723 | 2.11 | 0.063 | 0.49 | 1.58 | – | > 20 | 4.38 | > 20 | > 20
8 | NGVLQGITSWGPEPC [Peptide 68.0017] | > 20 | > 20 | 8.43 | > 20 | – | – | – | – | – | > 20 | > 20 | > 20 | – | > 20
9 | PDGQAEQATSNYYIV [Peptide 1543.43] | > 20 | > 20 | > 20 | > 20 | 0.051 | > 20 | – | 5.12 | > 20 | – | > 20 | > 20 | > 20 | 2.33
10 | QRFHNIRGRWTGRCM [Peptide 1543.27] | 14.6 | 5.31 | > 20 | > 20 | – | 4.55 | 2.9 | 4.47 | 0.036 | 0.574 | 0.919 | 0.894 | 17.2 | > 20
11 | QSTQVDIRILQELLM [Peptide 1543.11] | 2.34 | 0.607 | 2.71 | > 20 | 5.39 | 0.18 | 4.56 | 3.99 | 0.544 | 6.48 | > 20 | – | > 20 | > 20
12 | RFHNIMGRWTGRCSE [Peptide 1543.60] | 18.3 | – | 5.48 | 7.84 | – | 1.12 | 0.332 | 1.84 | 0.0056 | 0.024 | 0.374 | 0.027 | 0.123 | 8.86
13 | RHLDKKQRFHNIRGR [Peptide 1543.26] | > 20 | > 20 | 5.21 | > 20 | 0.591 | > 20 | 6.2 | 1.55 | 0.556 | – | 5.76 | 7.72 | > 20 | > 20
14 | RREVYDFAFRDLCIV [Peptide 1543.25] | 11 | > 20 | 11 | > 20 | 0.073 | 2.46 | 4.03 | – | > 20 | > 20 | 19.8 | 9.03 | > 20 | > 20
15 | RVCLLFYSKVRKYRY [Peptide 1543.54] | 0.603 | 0.089 | 0.071 | 0.868 | 0.232 | 7.74 | 0.299 | 0.233 | – | 4.26 | 3.85 | – | 0.717 | 0.656
16 | SEVYDFVFADLRIVY [Peptide 1543.48] | 8.09 | 0.046 | 0.0057 | 0.558 | 0.051 | 1.42 | 0.62 | 2.92 | 0.412 | > 20 | 2.35 | 4.04 | – | 0.033
17 | TRPRTLHELCEVLEE [Peptide 1543.42] | > 20 | > 20 | > 20 | > 20 | > 20 | 2.59 | – | 0.674 | 18 | > 20 | > 20 | > 20 | > 20 | > 20
